# Measurements: patent US11214548B2, “Cannabinoid receptor modulators” (priority 2009, dated 2022)
# Like-named read-outs stand apart in the source and are kept apart here.
# Assays:
# [1] = test system: acute and chronic pain; settings: animal studies; cited from earlier work
# [2] = test system: capsaicin-induced coughs; settings: guinea pigs; cited from earlier work
# [3] = test system: ovariectomy-induced bone loss; settings: in vivo; cited from earlier work
# [4] = test system: EAE; settings: cited from earlier work
# [5] = test system: bone marrow-derived osteoblasts/stromal cells; settings: in vitro; cited from earlier work
# [6] = test system: hypersensitivity following ligation of spinal nerves; settings: rats, local (subcutaneous) or systemic administration, chronic constriction injury model; cited from earlier work
# [7] = test system: hyperalgesia; settings: rodents, systemic delivery; cited from earlier work
# [8] = test system: CB1; settings: exogenous administration; cited from earlier work
# [9] = test system: histamine-induced responses; settings: human skin, topical administration; cited from earlier work
# [10] = test system: capsaicin-induced hyperalgesia and allodynia; settings: humans, topical administration; cited from earlier work
# [11] = test system: bovine nasal cartilage explants; settings: bovine nasal cartilage explants in vitro; cited from earlier work
# [12] = test system: cough; settings: conscious guinea-pigs, administration prior to citric acid; cited from earlier work
# [13] = test system: vagus nerve preparations; settings: guinea pig and human vagus nerve preparations in vitro; cited from earlier work
# [14] = test system: EAU; settings: EAU model in mice; cited from earlier work
# [15] = test system: capsaicin-induced coughs; settings: mice; cited from earlier work
# [16] = test system: MIA model of osteoarthritis; experiment: MIA model of osteoarthritis pain (von Frey, weight distribution, grip strength); type: in vivo, male Sprague Dawley rats; settings: 3, 10 and 30 mg/kg orally, one hour after dosing, FIG. 2
# Excerpt: Example 5: Effect of Compounds on Osteoarthritis Pain
# Injection of monosodium iodoacetate (MIA) into a joint (Kalbhen, 1987) inhibits the activity of glyceraldehyde-3-phosphate dehydrogenase in chondrocytes, resulting in disruption of glycolysis and eventually in cell death. The progressive loss of chondrocytes results in histological and morphological changes of the articular cartilage, closely resembling those seen in osteoarthritis patients.
# The osteoarthritis was induced in 200 g male Sprague Dawley rats. […]
# Typically during disease progression, there was an inflammation period of 0-7 days post-intra-articular injection followed by progressive degeneration of the cartilage and subchondral bone from days 14-55. […] Tactile allodynia was measured via von Frey assay, hind limb paw weight distribution was monitored using an incapacitence tester (Columbus Instruments, Columbus, Ohio, USA) and hind limb grip strength was measured using a grip strength meter (Columbus Instruments, Columbus, Ohio, USA). […] Hind paw weight distribution was determined by placing rats in a chamber so that each hind paw rests on a separate force plate of the incapacitence tester. The force exerted by each hind limb (measured in grams) is averaged over a 3 second period. Three measurements were taken for each rat, and the change in hind paw weight distribution calculated. […]
# [17] = test system: paclitaxel model of cancer pain; experiment: Paclitaxel-induced allodynia in Sprague Dawley rats; type: in vivo, male Sprague Dawley rats; settings: 10 mg/kg orally
# Experimental: Example 8: Paclitaxel-Induced Allodynia in Sprague Dawley Rats
# Male Sprague Dawley rats [200-250 g] (Harlan Laboratories Inc., Livermore, Calif.) were housed three per cage and maintained in a humidity-controlled (40-60%) and temperature-controlled (68-72° F.) facility on a 12 h:12 h light/dark cycle (lights on at 6:30 am) with free access to food (Harlan Teklad, Orange, Calif., Rodent Diet 8604) and water. Rats were allowed one week of habituation to the animal facility before starting treatment.
# Rats were treated intraperitoneally, with 2 mg/kg of paclitaxel (Sigma Aldrich, Saint Louis, Mo.) in 10% Cremophor vehicle (500 μL) on days 0, 2, 4, and 6.
# Tactile allodynia was tested using von Frey filaments. Briefly, the von Frey assay was performed using the standardized up down method with von Frey filaments, that determine the tactile sensitivity of the paw. By applying the increasingly or decreasingly thicker filaments to the paw in a logarithmic scale of actual force, a linear scale of perceived intensity is determined.
# Eight days after the start of paclitaxel dosing, a baseline measurement (von Frey assay) was performed prior to dosing of compounds. […] As a positive control, rats were dosed intraperitoneally with 100 mg/kg gabapentin in water. The dosing volume for oral and peritoneal treatment was 500 μL. […]
# [18] = test system: FCA-induced hyperalgesia model of inflammatory pain; experiment: FCA-induced hyperalgesia in rats; type: in vivo, male Sprague Dawley rats; settings: 0.1, 1, 3, 10 and 30 mg/kg orally, 1 h post dosing, FIG. 1
# Experimental: Example 7: Effect of Compounds on FCA-Induced Hyperalgesia in Rats
# Male Sprague Dawley rats from Harlan (200-225 g when received) were used. Upon arrival, rats were housed 4 per cage in shoe-box polycarbonate cages with wire tops, wood chip bedding and suspended food and water bottles. Animals were acclimated for 5-7 days prior to being injected with Freund's complete adjuvant (FCA) (Sigma; catalog #5881).
# 2 days (48 h) before testing compounds, baseline readings of all rats were taken right before FCA injection. Rats were then injected with 50 μL FCA containing 1 mg/mL Mtb (Mycobacterium tuberculosis) in right hind footpad under inhalation anesthesia (isoflurane). 48 hours after FCA injection, readings were taken as pre-dosing baseline and then rats were dosed orally with 0.5 mL of vehicle or compound (0.5 mL per 250 g rat). Readings were taken again at 1 h post dosing. All readings were taken with an Analgesy-Meter (Ugo Basile) which measures mechanical hyperalgesia via paw pressure.
# FCA-induced hyperalgesia was tested with an Analgesy-Meter. Briefly, the Analgesy Meter applied an increasing pressure to the right hind paw. The paw withdrawal threshold was the pressure leading to withdrawal.
# Meanwhile a group of rats were dosed orally with 50 mg/kg of Diclofenac as a positive control. Readings were taken again at 1 h post dosing. Dosing volume was 500 μL per 250 g rat.
smiles,measurement,setting,value
CCCCC/C=C\C/C=C\C/C=C\C/C=C\CCCC(=O)NCCO [anandamide],"effect against acute and chronic pain from chemical, mechanical, and thermal pain stimuli",[1],effective
same,number of capsaicin-induced coughs,[2],dose-dependent inhibition
CCCCCCC(C)(C)c1cc(OC)c([C@@H]2C=C(CO)[C@@H]3C[C@H]2C3(C)C)c(OC)c1 [HU-308],ovariectomy-induced bone loss,[3],attenuates
same,"recruitment of immature myeloid cells and T cells, microglial and infiltrating myeloid cell proliferation, and axonal loss",[4]; EAE model,markedly reduces
same,endocortical osteoblast numbers and activity,[5],enhances
same,proliferation of osteoclast precursors,[5],inhibiting
CN1CCCCC1Cn1cc(C(=O)c2cc([N+](=O)[O-])ccc2I)c2ccccc21 (centres unmarked) [AM1241],tactile and thermal hypersensitivity,[6],reverses
same,"hyperalgesia induced in the carrageenan, capsaicin, and formalin models",[7],suppresses
CCCCC/C=C\C/C=C\C/C=C\C/C=C\CCCC(=O)NCCCl [arachidonyl-2-chloroethylamide],pain,[8],reduces
CCCCCCC(C)(C)c1cc(O)c2c(c1)OC(C)(C)[C@@H]1CC=C(CO)C[C@@H]21 [HU-210],histamine-induced responses,[9],reduces
same,capsaicin-induced hyperalgesia and allodynia,[10],attenuates
same,IL-1alpha-stimulated proteoglycan and collagen degradation,[11],significantly inhibit
CCCC(C)(C)c1ccc2c(c1)OC(C)(C)[C@@H]1CC=C(C)C[C@@H]21 [JWH133],cough,[12],significantly reduces
same,"capsaicin-, PGE2- and hypertonic saline-induced depolarization",[13],reduces
Cc1c(C(=O)c2cccc3ccccc23)c2cccc3c2n1[C@H](CN1CCOCC1)CO3 [WIN 55212-2],"effect against acute and chronic pain from chemical, mechanical, and thermal pain stimuli",[1],effective
same,neuroprotection,[14],significant neuroprotection
same,number of capsaicin-induced coughs,[15],dose-dependent inhibition
same,IL-1alpha-stimulated proteoglycan and collagen degradation,[11],significantly inhibit
same,leukocyte rolling and adhesion in the brain,[4]; EAE mouse model,significantly inhibits
"CC(C)(CO)NC(=O)c1nn(-c2ccc(F)cc2F)c2c1C[C@H]1C[C@@H]21 [Compound 493, (1aR,5aR)-2-(2,4-Difluoro-phenyl)-1a,2,5,5a-tetrahydro-1H-2,3-diaza-cyclopropa[a]pentalene-4-carboxylic Acid (2-Hydroxy-1,1-dimethyl-ethyl)-amide]",paw withdrawal threshold (PWT) in comparison with vehicle,[16],Increase in paw withdrawal threshold (PWT)
same,time of maximum efficacy post-dosing,[17]; von Frey time course,1 h
same,paw withdrawal threshold (PWT) in comparison with vehicle and gabapentin,"[17]; 30, 60 and 180 minutes after dosing, FIG. 3",increase in paw withdrawal threshold (PWT)
same,paw withdrawal threshold (PWT) in comparison with the vehicle,[18],increase in paw withdrawal threshold (PWT)
